# According to publication PMC7935272 (PLoS Pathogens, 2021):
# “Also recorded” adds a separate entry of the source. Read-outs that look alike come from different tables or passages of the source.
# Tests used:
# [1] = tested on: MeV mRNA transcripts (P, H, L); experiment: qRT-PCR of MeV primary transcription in infected Vero-hSLAM cells; format: cell-based; settings: for Transcription gradient, H mRNA, Predicted (LS) mean 2 / Transcription gradient, L mRNA, Predicted (LS) mean 2 / Transcription gradient, P mRNA, Predicted (LS) mean 2: Figure 3I, N2 3
# Description: Total RNA was extracted four hours after infection using Trizol and subjected to reverse transcription using either oligo-dT primers. Subsequent qPCR used primer pairs specific for MeV P mRNA, MeV H mRNA, MeV L mRNA, or human GAPDH mRNA, respectively. qPCR was performed using an Applied Biosystems 7500 Real-Time PCR System with a StepOnePlus Real-Time PCR System. Samples were normalized for GAPDH.
# MeV = settings: cited from earlier work
# MeV L full length = MeV L full length (Measles virus, UniProt Q9WMB3); experiment: Biolayer interferometry, full-length MeV P-L; format: binding; settings: for S5 A BLI sensorgram response / S5 D BLI response versus compound conc.: MeV L full length; for steady-state BLI sensor response: S7 A
# Chain of MeV L full length (Q9WMB3 whole entry): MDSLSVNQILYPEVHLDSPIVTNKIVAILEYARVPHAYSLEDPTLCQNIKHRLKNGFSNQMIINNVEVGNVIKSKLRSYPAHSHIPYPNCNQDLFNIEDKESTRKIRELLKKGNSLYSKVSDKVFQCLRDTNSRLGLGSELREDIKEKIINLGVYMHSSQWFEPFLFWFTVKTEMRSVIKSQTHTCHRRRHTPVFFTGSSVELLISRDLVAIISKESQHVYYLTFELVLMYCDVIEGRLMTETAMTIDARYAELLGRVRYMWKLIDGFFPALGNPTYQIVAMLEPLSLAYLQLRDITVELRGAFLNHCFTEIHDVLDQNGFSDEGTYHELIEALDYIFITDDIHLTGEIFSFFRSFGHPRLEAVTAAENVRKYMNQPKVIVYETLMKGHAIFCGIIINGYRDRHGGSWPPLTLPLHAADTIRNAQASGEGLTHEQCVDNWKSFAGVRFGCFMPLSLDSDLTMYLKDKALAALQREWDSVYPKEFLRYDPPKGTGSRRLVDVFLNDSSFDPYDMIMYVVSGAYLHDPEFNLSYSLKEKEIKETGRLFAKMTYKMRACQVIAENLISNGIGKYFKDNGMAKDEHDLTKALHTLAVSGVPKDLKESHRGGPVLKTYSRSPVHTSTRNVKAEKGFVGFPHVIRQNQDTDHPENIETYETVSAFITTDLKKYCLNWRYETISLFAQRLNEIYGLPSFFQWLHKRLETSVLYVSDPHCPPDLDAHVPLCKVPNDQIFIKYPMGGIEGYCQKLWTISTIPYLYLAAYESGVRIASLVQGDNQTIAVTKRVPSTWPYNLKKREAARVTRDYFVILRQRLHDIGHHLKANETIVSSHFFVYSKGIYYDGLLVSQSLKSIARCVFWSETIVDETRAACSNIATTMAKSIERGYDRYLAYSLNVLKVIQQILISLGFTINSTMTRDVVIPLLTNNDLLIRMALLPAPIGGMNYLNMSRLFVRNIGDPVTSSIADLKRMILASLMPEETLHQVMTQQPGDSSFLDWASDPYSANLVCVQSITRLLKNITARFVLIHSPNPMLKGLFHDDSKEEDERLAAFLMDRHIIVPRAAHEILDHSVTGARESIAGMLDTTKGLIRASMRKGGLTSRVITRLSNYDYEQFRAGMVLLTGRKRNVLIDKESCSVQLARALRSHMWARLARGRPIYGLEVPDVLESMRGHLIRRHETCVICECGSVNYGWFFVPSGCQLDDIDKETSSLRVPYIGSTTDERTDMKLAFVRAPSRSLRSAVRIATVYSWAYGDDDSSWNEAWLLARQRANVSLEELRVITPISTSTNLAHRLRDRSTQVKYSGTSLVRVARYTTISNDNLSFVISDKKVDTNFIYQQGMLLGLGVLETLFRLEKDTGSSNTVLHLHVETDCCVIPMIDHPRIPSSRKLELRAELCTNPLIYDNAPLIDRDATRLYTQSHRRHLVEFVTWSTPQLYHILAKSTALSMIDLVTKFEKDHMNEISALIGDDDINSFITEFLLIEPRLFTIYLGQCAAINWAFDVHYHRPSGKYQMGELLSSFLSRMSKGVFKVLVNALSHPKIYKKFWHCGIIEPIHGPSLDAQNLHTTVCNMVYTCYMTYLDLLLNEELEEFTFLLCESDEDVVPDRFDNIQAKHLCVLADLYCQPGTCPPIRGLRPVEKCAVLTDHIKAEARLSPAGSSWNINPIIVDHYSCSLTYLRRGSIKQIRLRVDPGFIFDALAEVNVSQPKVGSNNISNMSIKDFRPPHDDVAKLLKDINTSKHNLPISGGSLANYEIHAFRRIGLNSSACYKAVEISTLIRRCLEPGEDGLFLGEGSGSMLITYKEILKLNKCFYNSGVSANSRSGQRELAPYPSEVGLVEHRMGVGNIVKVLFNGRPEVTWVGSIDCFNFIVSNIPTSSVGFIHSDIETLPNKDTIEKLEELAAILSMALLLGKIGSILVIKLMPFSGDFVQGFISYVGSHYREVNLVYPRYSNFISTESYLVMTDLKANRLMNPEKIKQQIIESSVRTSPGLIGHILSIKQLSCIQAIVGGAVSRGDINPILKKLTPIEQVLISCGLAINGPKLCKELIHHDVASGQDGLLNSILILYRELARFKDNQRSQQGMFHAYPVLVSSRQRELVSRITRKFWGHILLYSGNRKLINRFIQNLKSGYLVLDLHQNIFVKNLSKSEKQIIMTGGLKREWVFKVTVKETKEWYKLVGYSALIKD
# Chain of MeV L full length (Q9WMB4 whole entry partner): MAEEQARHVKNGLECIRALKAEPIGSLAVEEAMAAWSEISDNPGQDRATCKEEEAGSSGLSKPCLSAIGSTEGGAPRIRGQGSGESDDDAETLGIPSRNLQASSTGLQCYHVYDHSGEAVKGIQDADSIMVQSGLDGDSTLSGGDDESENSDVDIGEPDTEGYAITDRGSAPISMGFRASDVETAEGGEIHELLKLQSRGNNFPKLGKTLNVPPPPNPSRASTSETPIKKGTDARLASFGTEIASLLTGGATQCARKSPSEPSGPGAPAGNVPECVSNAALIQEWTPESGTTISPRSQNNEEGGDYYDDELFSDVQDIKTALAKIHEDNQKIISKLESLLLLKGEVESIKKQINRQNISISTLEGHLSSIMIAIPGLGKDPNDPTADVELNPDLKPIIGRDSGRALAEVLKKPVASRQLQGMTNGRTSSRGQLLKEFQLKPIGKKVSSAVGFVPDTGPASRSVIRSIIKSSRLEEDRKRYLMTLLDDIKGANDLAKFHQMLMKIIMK
structure (smiles),measurement,setting,value
"Cn1nc(C(F)(F)F)cc1C(=O)Nc1ccc(S(=O)(=O)N2CCCC[C@H]2CCN2CCOCC2)cc1 [ERDRP-0519, S(=O)(=O)(N1[C@H](CCN2CCOCC2)CCCC1)c1ccc(NC(=O)c2n(C)nc(C(F)(F)F)c2)cc1]",MeV P mRNA levels,"[1]; 0.2 μM or 0.8 μM, 4 hours after infection, recMeV-Anc MOI 3",significantly decreased; also recorded: dose-dependently reduced
same,"Transcription gradient, H mRNA, Predicted (LS) mean 2",[1]; 0.2 µM,0.1422
same,"Transcription gradient, L mRNA, Predicted (LS) mean 2",[1]; 0.2 µM,0.005639
same,"Transcription gradient, P mRNA, Predicted (LS) mean 2",[1]; 0.2 µM,1.063
same,"Transcription gradient, H mRNA, Predicted (LS) mean 2",[1]; 0.8 µM,0.1249
same,"Transcription gradient, L mRNA, Predicted (LS) mean 2",[1]; 0.8 µM,0.007941
same,"Transcription gradient, P mRNA, Predicted (LS) mean 2",[1]; 0.8 µM,1.011
same,IC50,MeV; Figure 7A source data,59 nM
same,EC50,"MeV; experimental activity, read-out: EC50",59 nM
same,EC50,MeV; read-out: EC50 in cell-based anti-MeV assays,70 to 230 nM
same,S5 A BLI sensorgram response,"MeV L full length; 0.003 µM, time 0 s",-0.0003139
same,S5 A BLI sensorgram response,"MeV L full length; 0.003 µM, time 0.2 s",-0.001098
same,S5 A BLI sensorgram response,"MeV L full length; 0.003 µM, time 0.4 s",-0.001645
same,S5 A BLI sensorgram response,"MeV L full length; 0.003 µM, time 0.6 s",-0.002393
same,S5 A BLI sensorgram response,"MeV L full length; 0.027 µM, time 0 s",0.0009777
same,S5 A BLI sensorgram response,"MeV L full length; 0.027 µM, time 0.2 s",0.001373
same,S5 A BLI sensorgram response,"MeV L full length; 0.027 µM, time 0.4 s",0.001785
same,S5 A BLI sensorgram response,"MeV L full length; 0.027 µM, time 0.6 s",0.001728
same,S5 A BLI sensorgram response,"MeV L full length; 0.08 µM, time 0 s",0.003123
same,S5 A BLI sensorgram response,"MeV L full length; 0.08 µM, time 0.2 s",0.003018
same,S5 A BLI sensorgram response,"MeV L full length; 0.08 µM, time 0.4 s",0.00257
same,S5 A BLI sensorgram response,"MeV L full length; 0.08 µM, time 0.6 s",0.002431
same,S5 A BLI sensorgram response,"MeV L full length; 0.74 µM, time 0 s",0.002177
same,S5 A BLI sensorgram response,"MeV L full length; 0.74 µM, time 0.2 s",0.002548
same,S5 A BLI sensorgram response,"MeV L full length; 0.74 µM, time 0.4 s",0.002706
same,S5 A BLI sensorgram response,"MeV L full length; 0.74 µM, time 0.6 s",0.002805
same,S5 A BLI sensorgram response,"MeV L full length; 2.22 µM, time 0 s",0.01086
same,S5 A BLI sensorgram response,"MeV L full length; 2.22 µM, time 0.2 s",0.01025
same,S5 A BLI sensorgram response,"MeV L full length; 2.22 µM, time 0.4 s",0.009623
same,S5 A BLI sensorgram response,"MeV L full length; 2.22 µM, time 0.6 s",0.009062
same,S5 D BLI response versus compound conc.,MeV L full length; compound conc. 0.003 uM,0.005655
same,S5 D BLI response versus compound conc.,MeV L full length; compound conc. 0.027 uM,0.009916
same,S5 D BLI response versus compound conc.,MeV L full length; compound conc. 0.08 uM,0.008265
same,S5 D BLI response versus compound conc.,MeV L full length; compound conc. 0.74 uM,0.01334
same,steady-state BLI sensor response,MeV L full length; 0.003 uM,0.006846
same,steady-state BLI sensor response,MeV L full length; 0.027 uM,0.008208
same,steady-state BLI sensor response,MeV L full length; 0.08 uM,0.009438
same,steady-state BLI sensor response,MeV L full length; 0.74 uM,0.01375
same,steady-state BLI sensor response,MeV L full length; 6.67 uM,0.01276
same,steady-state BLI sensor response,MeV L full length; 20 uM,0.01504
